The record followed here is US9284350B2, “IAP BIR domain binding compounds” (Pharmascience Inc., priority 2010, dated 2016).

Bounds are passed on as bounds.

For orientation: Ki means a dissociation constant, usually derived from enzyme kinetics or from competition with a known ligand. For orientation: EC50 means the concentration that produces a half-maximal response.

The target in data set [1] is T1, XIAP (Homo sapiens, UniProt P98170).
T1 construct: fused on or other part: GST tag at the N-terminus (pGEX4T vectors)
As to the kind of experiment: Fluorescence polarization-based competition assay, XIAP. The class given is binding. Particulars: FP assay, ki derived from IC50. Put shortly: (§1)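 Competition of FITC-labelled probe (2 nM) binding to the BIR domain, protein set at 80% of maximal FP signal; 10-point compound dilutions in 50 mM HEPES pH 7.5, γ-globulin, 2 mM DTT, 1% DMSO, 1 h at room temperature in the dark. IC50 from sigmoidal fit; Ki derived from IC50.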

Data set [2] has as its target T2, c-IAP1 (Homo sapiens, UniProt Q13490).
T2 construct: GST (N); made in house; host or cells: E. coli DH5α
As to the kind of experiment: Fluorescence polarization-based competition assay, c-IAP1. It counts as binding. As to conditions: FP assay, ki derived from IC50. Put shortly: as §1
(In general: In fluorescence polarisation assays a small probe gives low polarisation when free and higher when bound to something large.)

Data set [3] relates to Colorectal carcinoma HCT116 cells. As to the kind of experiment: Cell death assay (MTT) in combination with HGS ETR1. It counts as cell-based. As to conditions: with HGS ETR1 30 ng/ml, 72 hours, read-out: HCT116+ mapatubimap EC50. Put shortly:
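HCT116 cells (2000/well, McCoy's 5a, 10% FBS) were treated 24 h after plating with compound plus the agonistic TRAIL receptor antibody mapatumumab (ETR1, 30 ng/ml) for 72 hours. Viability was read by MTT. EC50 was the concentration giving 50% survival relative to untreated controls.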

Data set [4] has as its target T3, cIAP2 (Homo sapiens, UniProt Q13489).
T3 construct: GST (N); made in house; host or cells: E. coli DH5α
Put plainly: Fluorescence polarization-based competition assay, cIAP2. As to conditions: FP assay, ki derived from IC50. It counts as binding. Put shortly:
as §1

Data set [5] has as its system MDA-MB-231 (CD) cells. Put plainly: MDA-MB-231 compound + mapatubamab xenograft study. It counts as in vivo, nude mice. Particulars: 30 and 60 mg/kg, PO, QD in combination with mapatubamab (10 mg/kg, IV). How it is done: Female, nude mice received 5×10^6 MDA-MB-231 (CD) cells subcutaneously in the right flank (0.1 mL volume) on day 0 of the experiment. When the average tumor size reached ˜100 mm^3, groups were formed using a balanced design based on tumor size, and dosing was initiated. Test compound 10 or 7 (see Table 1) (or corresponding vehicle alone) was given daily, and mapatubamab (or corresponding vehicle alone) was given twice weekly. Tumor size and body weight were measured twice weekly throughout the study.

The nature of data set [6]: Maximum Tolerated Dose (MTD) study. The class given is in vivo, CD-1 mice. As to conditions: 350 mg/kg dose, PO twice weekly. As for the experimental part:
Male, CD-1 mice (20-25 g on arrival, Charles River) were habituated to the animal facility for four days and then randomly assigned to treatment groups. Animals were dosed by oral gavage twice weekly, for a total of six treatments, with compounds 63, 58, 45, 10, 20, 40, and 66 at 15, 70, or 350 mg/kg in water, PO, or water alone (5 ml/kg, PO). Body weight and general health were monitored throughout the experiment. Twenty four hours after the last dose (day 19), animals were anesthetized with isoflurane, and blood was collected for serum biochemistry. Serum biochemical parameters were restricted to random glucose, urea, creatinine, total protein, albumin, globulin, A:G ratio, total bilirubin, AST, ALT, alkaline phosphatase, GGT and amylase. Once exsanguinated the animals underwent full necropsy and organ weights were recorded for brain, heart, liver, spleen, kidneys, stomach (empty) and intestine (empty, from stomach to cecum). Because some treatments were suppressing weight gain (see below), organ weights were normalized to brain weight, and then expressed as percent change from the vehicle treated control group.

T1 sequence (P98170 246-497 limits assumed): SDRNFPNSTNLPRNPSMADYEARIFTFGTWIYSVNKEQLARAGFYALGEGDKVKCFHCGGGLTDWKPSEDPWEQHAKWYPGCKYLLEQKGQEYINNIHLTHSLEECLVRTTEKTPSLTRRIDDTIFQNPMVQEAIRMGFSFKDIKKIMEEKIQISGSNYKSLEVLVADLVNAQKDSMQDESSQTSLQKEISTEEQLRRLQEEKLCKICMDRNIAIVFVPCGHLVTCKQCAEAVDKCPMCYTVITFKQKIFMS
T3 sequence (Q13489 236-349): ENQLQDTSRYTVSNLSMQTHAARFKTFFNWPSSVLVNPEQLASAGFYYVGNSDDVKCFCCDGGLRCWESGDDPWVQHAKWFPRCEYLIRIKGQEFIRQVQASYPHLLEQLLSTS
T2 sequence (Q13490 251-363): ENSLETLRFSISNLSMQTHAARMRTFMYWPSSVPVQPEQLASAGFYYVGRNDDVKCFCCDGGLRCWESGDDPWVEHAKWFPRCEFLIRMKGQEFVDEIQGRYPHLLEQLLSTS

Regarding `CN[C@@H](C)C(=O)N[C@H](C(=O)N1CCC[C@H]1CN(CCc1ccccc1)C(=O)c1cn2ccccc2n1)C(C)(C)C` [Compound 7], the Ki in data set [1] was less than 250 nM; in data set [2] it was less than 25 nM; in data set [4], less than 25 nM. In addition, in data set [3], the EC50 is less than 250 nM. In data set [5], the “reduction of tumor volume as compared to control” value is recorded as 50%.

Turning to `CN[C@@H](C)C(=O)N[C@H](C(=O)N1CCC[C@H]1CN(CCc1ccc(F)cc1)C(=O)c1cn(C)cn1)C(C)(C)C` [Compound 40], the values for the Ki in data set [1], in data set [2] and in data set [4] were less than 250 nM, less than 25 nM and less than 25 nM, respectively. For the same compound, the EC50 in data set [3] was less than 50 nM. Moreover, in data set [6], the body weight change entry is listed as “slight weight loss”.

As to `CN[C@@H](C)C(=O)N[C@H](C(=O)N1CCC[C@H]1CN(CCc1ccc(F)cc1)C(=O)c1cn2cccnc2n1)C(C)(C)C` [Compound 10], the Ki was less than 250 nM in data set [1], less than 25 nM in data set [2] and less than 25 nM in data set [4]. In addition, the EC50 in data set [3] is less than 50 nM. Moreover, in data set [5], the “reduction of tumor volume as compared to control” value came to 50%.

Regarding `CN[C@@H](C)C(=O)N[C@H](C(=O)N1CCC[C@H]1CN(CCc1ccc(F)cc1)C(=O)c1cn2cc(F)cnc2n1)[C@@H](C)OC` [Compound 74], the Ki in data set [1] is less than 250 nM; in data set [2], less than 25 nM; in data set [4], less than 25 nM. Moreover, the EC50 in data set [3] is less than 50 nM.

Regarding `CCO[C@H](C)[C@H](NC(=O)[C@H](C)NC)C(=O)N1CCC[C@H]1CN(CCc1ccc(F)cc1)C(=O)c1cn2cc(F)cnc2n1` [Compound 80], the Ki in data set [1] was less than 250 nM; in data set [2], less than 25 nM; in data set [4], less than 25 nM. Moreover, the EC50 in data set [3] was less than 50 nM.

For the compound `CN[C@@H](C)C(=O)N[C@H](C(=O)N1CCC[C@H]1CN(CCc1ccc(F)cc1)C(=O)c1cn2cc(F)cnc2n1)C(C)(C)C` [Compound 63], the inhibitory constant (Ki) is less than 250 nM in data set [1], less than 25 nM in data set [2] and less than 25 nM in data set [4]. Moreover, in data set [3], the EC50 was less than 50 nM. Also, the body weight change result in data set [6] is recorded as “slight weight loss”.

With `CCO[C@H](C)[C@H](NC(=O)[C@H](C)NC)C(=O)N1CCC[C@H]1CN(CCc1ccc(F)cc1)C(=O)c1cn(C)cn1` [Compound 76], the Ki is less than 250 nM in data set [1], less than 25 nM in data set [2] and less than 25 nM in data set [4]. Also, the concentration for a half-maximal effect (EC50) in data set [3] is less than 50 nM.

Take `CN[C@@H](C)C(=O)N[C@H](C(=O)N1CCC[C@H]1CN(CCc1ccc(F)cc1)C(=O)c1cn2c(n1)CCC2)C(C)(C)C` [Compound 67]: the inhibitory constant (Ki) in data set [1] is less than 250 nM; in data set [2] it was less than 25 nM; in data set [4], less than 25 nM. Also, the EC50 in data set [3] is less than 50 nM.

Take `CN[C@@H](C)C(=O)N[C@H](C(=O)N1C[C@@H](Oc2ccc(F)cc2)C[C@H]1CN(CCc1ccc(F)cc1)C(=O)c1cn2cc(F)cnc2n1)[C@@H](C)OC` [Compound 107]: the inhibitory constant (Ki) in data set [1] is less than 250 nM; in data set [2] it was less than 25 nM; in data set [4], less than 25 nM. In addition, the EC50 in data set [3] was less than 50 nM.

On to `CN[C@@H](C)C(=O)N[C@H](C(=O)N1CCC[C@H]1CN(CCc1ccc(F)cc1)C(=O)c1cn2ccccc2n1)C(C)(C)C` [Compound 17], for which the figures for the Ki in data set [1], in data set [2] and in data set [4] were less than 250 nM, less than 25 nM and less than 25 nM, respectively. Besides, the EC50 in data set [3] is less than 50 nM.

Take `C[C@H](N)C(=O)N[C@H](C(=O)N1CCC[C@H]1CN(CCc1ccc(F)cc1)C(=O)c1cn2cccnc2n1)C(C)(C)C` [Compound 37]: the figures for the inhibition constant (Ki) in data set [1], in data set [2] and in data set [4] were less than 250 nM, less than 25 nM and less than 25 nM, respectively. In addition, in data set [3], the EC50 was more than 1000 nM.

Take `CN[C@@H](C)C(=O)N[C@H](C(=O)N1CCC[C@H]1CN(CCc1ccc(F)cc1)C(=O)c1cn2c(n1)CCC2)[C@@H](C)OC` [Compound 75]: the Ki was less than 250 nM in data set [1], less than 25 nM in data set [2] and less than 25 nM in data set [4]. The EC50 in data set [3] is less than 50 nM.

Regarding `CCN[C@@H](C)C(=O)N[C@H](C(=O)N1CCC[C@H]1CN(CCc1ccccc1)C(=O)c1cn2cccnc2n1)C1CCCCC1` [Compound 2], the Ki was more than 1000 nM in data set [1], less than 250 nM in data set [2] and less than 250 nM in data set [4]. For the same compound, in data set [3], the EC50 was less than 1000 nM.

Turning to `CN[C@@H](C)C(=O)N[C@H](C(=O)N1C[C@@H](OCc2ccccc2)C[C@H]1CN(CCc1ccc(F)cc1)C(=O)c1cn2cccnc2n1)C(C)(C)C` [Compound 47], the inhibition constant Ki in data set [1] was less than 250 nM; in data set [2] it was less than 25 nM; in data set [4] it was less than 25 nM. For the same compound, the EC50 in data set [3] was less than 250 nM.

As for `CN[C@@H](C)C(=O)N[C@H](C(=O)N1CCC[C@H]1CN(CCc1ccc(F)cc1)C(=O)c1cc(C)on1)C(C)(C)C` [Compound 98], the figures for the Ki in data set [1], in data set [2] and in data set [4] were less than 250 nM, less than 25 nM and less than 25 nM, respectively. In data set [3], the EC50 was less than 250 nM.
